Data on 19 compounds can be found in patent publication EP0799614A1, “REMEDY FOR ISCHEMIC DISEASES” (CHUGAI SEIYAKU KABUSHIKI KAISHA, priority 1994, dated 1996).

Where two headings read alike, the source gives them in different places.

One test relates to rabbit LDL. In words: Inhibitory action on lipid peroxidation in vitro, Method A: oxidation of LDL by soybean lipoxygenase, fluorescence of LDL fraction. The class given is biochemical. The note with it: fluorescence intensity of oxidized LDL fraction, SLO 40 µg/ml, 37°C, 24 hours. The protocol:
A test compound was added to rabbit LDL prepared according to the method of Havel, et al. (Havel RJ et al., J. Clin. Invest., 34, 1345 (1955)), and then a soybean lipoxygenase type-IS (SLO) was added to a final concentration of 40 µg/ml. Oxidation of LDL was carried out at 37°C in a CO2 incubator for 24 hours. The oxidized LDL solution was separated by gel-permeation chromatography, and the fluorescence intensity of the LDL fraction was measured at an excitation wavelength of 360 nm and an emission wavelength of 430 nm.

The next test relates to thoracic aorta. In words: Vasorelaxing action in vitro: relaxation of 30 mM K+ contraction of aortic rings. The class given is cell-based, Sprague-Dawley (Crj) male rat. To be noted: contraction at 30 mM K+ taken as 100%. The protocol: The thoracic aorta was excised from a Sprague-Dawley (Crj) male rat weighing between 350 and 550 g, and dissected free from surrounding connective tissue. The vessel was cut into a ring having a width of 2 to 3 mm. The resulting preparation was mounted for isometric tension recording in an organ bath filled with 10 ml of a Krebs-Henseleit solution (K-H solution, pH 7.4, 37°C), which was bubbled with 95% 02/5% CO2. Isometric tension changes were monitored with an isometric tranducer (TB-611T, manufactured by Nihon Kohden Corp.). Before starting the experiment, the preparation was given a stretched tension of 2 g and allowed to equilibrate for 30 minutes (the K-H solution was exchanged for a fresh one every 15 minutes). At first, the preparation was precontracted by changing the solution in the bath to one containing 30 mM K^+. After the contraction was maintained for 20 minutes, the preparation was washed with K-H solution. Sixty minutes thereafter (the K-H solution was exchanged with a fresh one every 20 minutes), contraction was again induced in the same manner as described above. […]

In test [1] the test system is Isolated ventricular myocytes. In words: Inhibitory action on calcium overload in vitro, Method B: veratridine-treated myocytes. The class given is cell-based, male Sprague-Dawley rat. To be noted: veratridine 50 µg/ml, read-out: Concentration at Which Cells Survived Almost Completely. The protocol:
(§1) Isolated ventricular myocytes were prepared from the heart of male Sprague-Dawley rat weighing 300 to 500 g, using an enzyme-perfusion method. […]
The efficacy was evaluated in the same manner as in Method A, except for using 50 µg/ml of veratridine in place of veratrine (100 µg/ml).

The subject of test [2] is coronary preparations from dogs. In words: Antispasmodic action in vitro: 3,4-diaminopyridine-induced rhythmic contractions. The note with it: Fig. 2; 3,4-DAP 10 mM; compared with diltiazem. The class given is cell-based. Here is the method: Following repeated replacements of PSS in an organ bath at 15-min intervals, the tension on each of the coronary preparations from dogs stabilized at 2 g; then, PSS was replaced by a 30 mM K^+ PSS to contract the preparations. The 30mM K^+ PSS was replaced by normal PSS in an organ bath to relax the preparations, followed by replacements with PSS at 20-min intervals to stabilize the tension for about 1 h, followed by the addition of 3,4-DAP (10 mM) to induce rhythmic contractions. […] The drug concentration allowing for complete suppression of the amplitude of the 3,4-DAP-induced rhythmic contractions may be designated "elimination dose".

For test [3], the system named is Thoracic aorta preparations from rats. In words: Vasorelaxing action in vitro: effect on CaCl2-induced contractions. The class given is cell-based. The note with it: Fig. 1; CaCl2 0.01 - 10 mM in 60 mM K+ PSS; compared with diltiazem. Here is the method: Thoracic aorta preparations from rats were stabilized in normal physiological salt solution (PSS) for at least 30 min, contracted with 60 mM KCl and, thereafter, relaxed with normal PSS. Twenty minutes later, the preparations were exposed to Ca^2+ -free 60 mM K^+ PSS (containing 0.1 mM EGTA) for 20 min, then to nominally Ca^2+ -free 60 mM K^+ PSS which is free of EGTA for 20 min, followed by cumulative application of CaCl2 (0.01 - 10 mM) to construct a dose-response curve. […] The response was converted to percent contraction, with the contraction caused by 10 mM CaCl2 being taken as 100%. The data in Fig. 1 are expressed by the mean of 5 cases ± standard error.

For test [4], the system named is Isolated ventricular myocytes. In words: Inhibitory action on calcium overload in vitro, Method A: veratrine-treated myocytes, survival rate. The class given is cell-based, male Sprague-Dawley rat. On the set-up: key: ++: The cells survived almost completely at 10^-7 M.; +: The cells survived almost completely at 10^-6 M.; The cells died almost completely at 10 M^-6 M. The note with it: 30 minutes pretreatment, veratrine 100 µg/ml, observed five minutes later. Here is the method: as §1

The test system of a further test is Male Sprague-Dawley rats. In words: Preventive effect on ventricular arrhythmia caused by occlusion and reperfusion of the coronary artery. The class given is in vivo. The note with it: Fig. 4; 0.5, 1 and 3 mg/kg via femoral vein 10 min before occlusion; compared with diltiazem 1 and 3 mg/kg. The protocol: Male Sprague-Dawley rats (450 - 600 g) were anethetized with pentobarbital, subjected to thoracotomy under artificial respiration, had the arterior descending branch of the left coronary artery occluded with a silk ligature for 5 min, had the occlusion removed to permit reperfusion and examined for 10 min. A standard limb lead II electrocardiogram was recorded to check for the occurrence of ventricular arrythmia. […] The parethesized numeral at the bottom of each bar in Fig. 4 represents the number of cases.

In general, IC50 refers to the midpoint of a concentration-inhibition curve. As for `CN(CCCN1C(=O)CSC1c1cc(C(C)(C)C)c(O)c(C(C)(C)C)c1)CCOc1ccc2c(c1)OCO2` (single isomer, unassigned; (+)) [Compound 70, (+)-2-(3,5-Di-tert-butyl-4-hydroxyphenyl)-3-[3-[N-methyl-N-[2-(3,4-methylenedioxyphenoxy)ethyl]amino]propyl]-1,3-thiazolidin-4-one], in the test with rabbit LDL (5 x 10^-6 M, 5 µM), the “Percent (%) of Control” value worked out at 5.1%. Besides, in the test with thoracic aorta, the IC50 was 300 nM. Moreover, the minimal effective concentration in test [1] (Rattus norvegicus, Ventricular myocyte) is 0.32 µM.
The compound `CC1SC(c2cc(C(C)(C)C)c(O)c(C(C)(C)C)c2)N(CCCN(C)CCOc2ccc3c(c2)OCO3)C1=O` (single isomer, unassigned; (+)) [Compound 74, (+)-2,5-Cis-2-[3,5-di-tert-butyl-4-hydroxyphenyl)-3-[3-[N-methyl-N-[2-(3,4-methylenedioxyphenoxy)ethyl]amino]propyl]-5-methyl-1,3-thiazolidin-4-one] returned an IC50 in the test with thoracic aorta of 141 nM.
Regarding `CN(CCCN1C(=O)CSC1c1cc(C(C)(C)C)c(O)c(C(C)(C)C)c1)CCOc1ccc2c(c1)OCO2` (single isomer, unassigned; (-)) [Compound 71, (-)-2-(3,5-Di-tert-butyl-4-hydroxyphenyl)-3-[3-[N-methyl-N-[2-(3,4-methylenedioxyphenoxy)ethyl]amino]propyl]-1,3-thiazolidin-4-one], the “suppression of 3,4-DAP-induced rhythmic contractions” value in test [2] is recorded as “capable of suppressing the 3,4-DAP-induced rhythmic contractions at a lower concentration than diltiazem”. Further, in the test with rabbit LDL (5 x 10^-6 M, 5 µM), the “Percent (%) of Control” value is on record as 2.8%. In addition, the “inhibitory action against the contraction caused by CaCl2” value in test [3] is “need be applied in a by far smaller amount than diltiazem to exhibit an outstanding inhibitory action”. Moreover, inhibition with thoracic aorta was half-maximal at 27 nM (IC50). Also, the minimal effective concentration in test [1] worked out at 0.32 µM.
In the test on thoracic aorta, `CC1SC(c2cc(C(C)(C)C)c(O)c(C(C)(C)C)c2)N(CCCN(C)CCOc2ccc3c(c2)OCO3)C1=O` (single isomer, unassigned; (-)) [Compound 75, (-)-2,5-Cis-2-[3,5-di-tert-butyl-4-hydroxyphenyl)-3-[3-[N-methyl-N-[2-(3,4-methylenedioxyphenoxy)ethyl]amino]propyl]-5-methyl-1,3-thiazolidin-4-one] came in with an IC50 of 22 nM. The minimal effective concentration in test [1] is listed as 0.32 µM.
The compound `CC(C)c1cc(C2SCC(=O)N2CCCN(C)CCOc2ccc3c(c2)OCO3)cc(C(C)C)c1O` (centres unmarked) [Compound 1, 2-(3,5-Diisopropyl-4-hydroxyphenyl)-3-[3-[N-methyl-N-[2-(3,4-methylenedioxyphenoxy)ethyl]amino]propyl]-1,3-thiazolidin-4-one] gave a half-maximal inhibitory concentration (IC50) in the test with thoracic aorta (Rattus norvegicus) of 170 nM.
Consider `CN(CCCCN1C(=O)CSC1c1cc(C(C)(C)C)c(O)c(C(C)(C)C)c1)CCOc1ccc2c(c1)OCO2` (centres unmarked) [Compound 8], for which the “Survival Rate of Cells” value in test [4] was “++”. The compound further gave an IC50 in the test on thoracic aorta (Rattus norvegicus) of 170 nM.
Regarding `CN(CCCCCN1C(=O)CSC1c1cc(C(C)(C)C)c(O)c(C(C)(C)C)c1)CCOc1ccc2c(c1)OCO2` (centres unmarked) [Compound 9], the “Percent (%) of Control” value in the test with rabbit LDL (5 x 10^-6 M) turned out to be 5.9%. The “Survival Rate of Cells” value in test [4] was “++”. The compound further had an IC50 in the test with thoracic aorta (Rattus norvegicus) of 28 nM.
`COc1c(C(C)(C)C)cc(C2SCC(=O)N2CCCN(C)CCOc2ccc3c(c2)OCO3)cc1C(C)(C)C` (centres unmarked) [Compound 11]: in the test with thoracic aorta (Rattus norvegicus), it took 21 nM to reach half-maximal inhibition (IC50).
As for `CCN(CCCN1C(=O)CSC1c1cc(C(C)(C)C)c(O)c(C(C)(C)C)c1)CCOc1ccc2c(c1)OCO2` (centres unmarked) [Compound 12], the “Percent (%) of Control” value in the test with rabbit LDL (5 x 10^-6 M) is 6.4%. In addition, the “Survival Rate of Cells” value in test [4] is “++”. In the test with thoracic aorta (Rattus norvegicus), half-maximal inhibition (IC50) required 63 nM.
As to `CN(CCCOc1ccc2c(c1)OCO2)CCCN1C(=O)CSC1c1cc(C(C)(C)C)c(O)c(C(C)(C)C)c1` (centres unmarked) [Compound 17], the “Percent (%) of Control” value in the test on rabbit LDL (5 x 10^-6 M) came to 3.9%. Further, in the test on thoracic aorta (Rattus norvegicus), the IC50 is 28 nM.
`COc1ccc(CN(C)CCCN2C(=O)CSC2c2cc(C(C)(C)C)c(O)c(C(C)(C)C)c2)cc1OC` (centres unmarked) [Compound 19]: it took 110 nM to reach half-maximal inhibition with thoracic aorta (Rattus norvegicus) (IC50).
Turning to `COc1ccc(CCN(C)CCCN2C(=O)CSC2c2cc(C(C)(C)C)c(O)c(C(C)(C)C)c2)cc1OC` (centres unmarked) [Compound 20], the “Percent (%) of Control” value in the test with rabbit LDL (5 x 10^-6 M) was 0.6%; in the test on rabbit LDL (5 x 10^-7 M, 0.5 µM), 8.7%. Moreover, the “Survival Rate of Cells” value in test [4] is on record as “+”.
`CN(CCCN1C(=O)CSC1c1cc(C(C)(C)C)c(O)c(C(C)(C)C)c1)CCOc1ccc2c(c1)OCO2` (centres unmarked) [Compound 26, 2-(3,5-Di-tert-butyl-4-hydroxyphenyl)-3-[3-[N-methyl-N-[2-(3,4-methylenedioxyphenoxy)ethyl]amino]propyl]-1,3-thiazolidin-4-one]: in test [4], the “Survival Rate of Cells” value is “++”. For the same compound, the IC50 in the test on thoracic aorta worked out at 37 nM. In addition, the incidence of arrhythmia result with Male Sprague-Dawley rats is recorded as “by far superior effect to diltiazem in decreasing the incidnece of arrhythmia”.
For `CC1SC(c2cc(C(C)(C)C)c(O)c(C(C)(C)C)c2)N(CCCN(C)CCOc2ccc3c(c2)OCO3)C1=O` (centres unmarked) [Compound 41, 2-(3,5-Di-tert-butyl-4-hydroxyphenyl)-3-[3-[N-methyl-N-[2-(3,4-methylenedioxyphenoxy)ethyl]amino]propyl]-5-methyl-1,3-thiazolidin-4-one], the “Percent (%) of Control” value in the test on rabbit LDL (5 x 10^-6 M) was determined as 6.2%. In the test with thoracic aorta, inhibition was half-maximal at 56 nM (IC50).
As for `CN(CCCN1C(=O)C(CCO)SC1c1cc(C(C)(C)C)c(O)c(C(C)(C)C)c1)CCOc1ccc2c(c1)OCO2` (centres unmarked) [Compound 49, 2-(3,5-Di-tert-butyl-4-hydroxyphenyl)-3-[3-[N-methyl-N-[2-(3,4-methylenedioxyphenoxy)ethyl]amino]propyl]-5-(2-hydroxyethyl)-1,3-thiazolidin-4-one], it took 23 nM to reach half-maximal inhibition in the test with thoracic aorta (Rattus norvegicus) (IC50).
Still for that read-out and setting: in the case of `CN(CCCN1C(=O)C(OCCO)SC1c1cc(C(C)(C)C)c(O)c(C(C)(C)C)c1)CCOc1ccc2c(c1)OCO2` (centres unmarked) [Compound 55] it was 21 nM; in that of `CC1SC(c2cc(C(C)(C)C)c(O)c(C(C)(C)C)c2)N(CCCN(C)CCOc2ccc3c(c2)OCO3)C1=O` (stereo not drawn) [Compound 72, 2,5-Trans-2-(3,5-di-tert-butyl-4-hydroxyphenyl)-3-[3-[N-methyl-[2-(3,4-methylenedioxyphenoxy)ethyl]amino]propyl]-5-methyl-1,3-thiazolidin-4-one], 98 nM.
In the test with thoracic aorta, `CC1SC(c2cc(C(C)(C)C)c(O)c(C(C)(C)C)c2)N(CCCN(C)CCOc2ccc3c(c2)OCO3)C1=O` (stereo not drawn) [Compound 73, 2,5-Cis-2-(3,5-di-tert-butyl-4-hydroxyphenyl)-3-[3-[N-methyl-N-[2-(3,4-methylenedioxyphenoxy)ethyl]amino]propyl]-5-methyl-1,3-thiazolidin-4-one] returned an IC50 of 49 nM. For the same compound, the minimal effective concentration in test [1] stood at 0.32 µM.
Turning to `COc1ccc([C@@H]2Sc3ccccc3N(CCN(C)C)C(=O)[C@@H]2OC(C)=O)cc1` [Diltiazem, reference compound], the “Survival Rate of Cells” value in test [4] is given as “-”.
